Reference: article PMC8909834, “An Orally Bioavailable and Highly Efficacious Inhibitor of CDK9/FLT3 for the Treatment of Acute Myeloid Leukemia” (Cancers, 2022)

What was measured:
Assay in all cases: Kinase Hotspot radiolabel assay
Format in all cases: biochemical
Settings in all cases: read-out: % Residual Activity
AKT2 = target: T1, AKT2 (Homo sapiens, UniProt P31751)
T1 construct: purchased Reaction Biology Corporation (Kinase HotSpot)
Summary of the method: (§1)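 Step one: screen at 1 µM across 369 kinases (Hotspot, radiolabel detection). Step two: Ki determination for kinases with >90% inhibition.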

Aurora C = target: T2, Aurora C (Homo sapiens, UniProt Q9UQB9)
T2 construct: purchased Reaction Biology Corporation (Kinase HotSpot)
Summary of the method: as §1

BMPR2 = target: T3, BMPR2 (Homo sapiens, UniProt Q13873)
T3 construct: purchased Reaction Biology Corporation (Kinase HotSpot)
Summary of the method: as §1

CAMK1g = target: T4, CAMK1g (Homo sapiens, UniProt Q96NX5)
T4 construct: purchased Reaction Biology Corporation (Kinase HotSpot)
Summary of the method: as §1

CAMK2d = target: T5, CAMK2d (Homo sapiens, UniProt Q13557)
T5 construct: purchased Reaction Biology Corporation (Kinase HotSpot)
Summary of the method: as §1

CDK1/cyclin A = target: T6, CDK1/cyclin A (Homo sapiens, UniProt P06493)
T6 construct: purchased Reaction Biology Corporation (Kinase HotSpot)
Summary of the method: as §1

CDK6/cyclin D3 = target: T7, CDK6/cyclin D3 (Homo sapiens, UniProt Q00534)
T7 construct: purchased Reaction Biology Corporation (Kinase HotSpot)
Summary of the method: as §1

CK1d = target: T8, CK1d (Homo sapiens, UniProt P48730)
T8 construct: purchased Reaction Biology Corporation (Kinase HotSpot)
Summary of the method: as §1

CK1epsilon = target: T9, CK1epsilon (Homo sapiens, UniProt P49674)
T9 construct: purchased Reaction Biology Corporation (Kinase HotSpot)
Summary of the method: as §1

CLK4 = target: T10, CLK4 (Homo sapiens, UniProt Q9HAZ1)
T10 construct: purchased Reaction Biology Corporation (Kinase HotSpot)
Summary of the method: as §1

DAPK1 = target: T11, DAPK1 (Homo sapiens, UniProt P53355)
T11 construct: purchased Reaction Biology Corporation (Kinase HotSpot)
Summary of the method: as §1

DCAMKL1 = target: T12, DCAMKL1 (Homo sapiens, UniProt O15075)
T12 construct: purchased Reaction Biology Corporation (Kinase HotSpot)
Summary of the method: as §1

DLK/MAP3K12 = target: T13, DLK/MAP3K12 (Homo sapiens, UniProt Q12852)
T13 construct: purchased Reaction Biology Corporation (Kinase HotSpot)
Summary of the method: as §1

EPHA4 = target: T14, EPHA4 (Homo sapiens, UniProt P54764)
T14 construct: purchased Reaction Biology Corporation (Kinase HotSpot)
Summary of the method: as §1

FGFR2 = target: T15, FGFR2 (Homo sapiens, UniProt P21802)
T15 construct: purchased Reaction Biology Corporation (Kinase HotSpot)
Summary of the method: as §1

GCK/MAP4K2 = target: T16, GCK/MAP4K2 (Homo sapiens, UniProt Q12851)
T16 construct: purchased Reaction Biology Corporation (Kinase HotSpot)
Summary of the method: as §1

GLK/MAP4K3 = target: T17, GLK/MAP4K3 (Homo sapiens, UniProt Q8IVH8)
T17 construct: purchased Reaction Biology Corporation (Kinase HotSpot)
Summary of the method: as §1

HIPK4 = target: T18, HIPK4 (Homo sapiens, UniProt Q8NE63)
T18 construct: purchased Reaction Biology Corporation (Kinase HotSpot)
Summary of the method: as §1

IRAK4 = target: T19, IRAK4 (Homo sapiens, UniProt Q9NWZ3)
T19 construct: purchased Reaction Biology Corporation (Kinase HotSpot)
Summary of the method: as §1

MAPKAPK2 = target: T20, MAPKAPK2 (Homo sapiens, UniProt P49137)
T20 construct: purchased Reaction Biology Corporation (Kinase HotSpot)
Summary of the method: as §1

MEK3 = target: T21, MEK3 (Homo sapiens, UniProt P46734)
T21 construct: purchased Reaction Biology Corporation (Kinase HotSpot)
Summary of the method: as §1

MSK2/RPS6KA4 = target: T22, MSK2/RPS6KA4 (Homo sapiens, UniProt O75676)
T22 construct: purchased Reaction Biology Corporation (Kinase HotSpot)
Summary of the method: as §1

MYO3b = target: T23, MYO3b (Homo sapiens, UniProt Q8WXR4)
T23 construct: purchased Reaction Biology Corporation (Kinase HotSpot)
Summary of the method: as §1

P38g = target: T24, P38g (Homo sapiens, UniProt P53778)
T24 construct: purchased Reaction Biology Corporation (Kinase HotSpot)
Summary of the method: as §1

PAK5 = target: T25, PAK5 (Homo sapiens, UniProt Q9P286)
T25 construct: purchased Reaction Biology Corporation (Kinase HotSpot)
Summary of the method: as §1

PKCzeta = target: T26, PKCzeta (Homo sapiens, UniProt Q05513)
T26 construct: purchased Reaction Biology Corporation (Kinase HotSpot)
Summary of the method: as §1

STK32C/YANK3 = target: T27, STK32C/YANK3 (Homo sapiens, UniProt Q86UX6)
T27 construct: purchased Reaction Biology Corporation (Kinase HotSpot)
Summary of the method: as §1

TSSK2 = target: T28, TSSK2 (Homo sapiens, UniProt Q96PF2)
T28 construct: purchased Reaction Biology Corporation (Kinase HotSpot)
Summary of the method: as §1

ULK1 = target: T29, ULK1 (Homo sapiens, UniProt O75385)
T29 construct: purchased Reaction Biology Corporation (Kinase HotSpot)
Summary of the method: as §1

WEE1 = target: T30, WEE1 (Homo sapiens, UniProt P30291)
T30 construct: purchased Reaction Biology Corporation (Kinase HotSpot)
Summary of the method: as §1

T8 sequence (P48730 whole entry): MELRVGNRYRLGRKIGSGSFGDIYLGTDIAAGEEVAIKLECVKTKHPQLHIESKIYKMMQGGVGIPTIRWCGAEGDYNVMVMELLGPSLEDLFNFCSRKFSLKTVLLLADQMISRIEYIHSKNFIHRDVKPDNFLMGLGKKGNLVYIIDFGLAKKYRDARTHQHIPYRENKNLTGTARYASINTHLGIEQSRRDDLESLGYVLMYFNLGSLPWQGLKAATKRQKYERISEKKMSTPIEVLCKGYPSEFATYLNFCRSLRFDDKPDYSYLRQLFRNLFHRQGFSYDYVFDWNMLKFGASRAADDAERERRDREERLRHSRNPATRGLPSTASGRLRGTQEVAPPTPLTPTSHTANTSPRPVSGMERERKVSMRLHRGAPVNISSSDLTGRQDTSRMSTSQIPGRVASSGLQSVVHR
T7 sequence (Q00534 whole entry): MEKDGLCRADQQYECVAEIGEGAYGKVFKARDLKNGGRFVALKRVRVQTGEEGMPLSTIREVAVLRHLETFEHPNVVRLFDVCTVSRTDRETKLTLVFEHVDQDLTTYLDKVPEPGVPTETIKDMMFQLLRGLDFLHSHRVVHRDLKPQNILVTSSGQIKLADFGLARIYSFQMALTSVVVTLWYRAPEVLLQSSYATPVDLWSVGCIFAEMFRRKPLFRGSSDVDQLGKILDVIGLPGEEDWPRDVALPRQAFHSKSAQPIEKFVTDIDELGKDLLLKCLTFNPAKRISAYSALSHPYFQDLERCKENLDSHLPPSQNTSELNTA
T7 sequence (P30281 whole entry partner): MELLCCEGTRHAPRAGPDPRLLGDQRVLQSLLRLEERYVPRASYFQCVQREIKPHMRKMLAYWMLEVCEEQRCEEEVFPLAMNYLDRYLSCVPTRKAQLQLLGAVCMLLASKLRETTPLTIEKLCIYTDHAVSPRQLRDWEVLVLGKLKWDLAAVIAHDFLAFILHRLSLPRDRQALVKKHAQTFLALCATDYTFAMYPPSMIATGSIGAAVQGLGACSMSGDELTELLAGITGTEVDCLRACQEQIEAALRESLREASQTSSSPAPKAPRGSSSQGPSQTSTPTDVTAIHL
T23 sequence (Q8WXR4 whole entry): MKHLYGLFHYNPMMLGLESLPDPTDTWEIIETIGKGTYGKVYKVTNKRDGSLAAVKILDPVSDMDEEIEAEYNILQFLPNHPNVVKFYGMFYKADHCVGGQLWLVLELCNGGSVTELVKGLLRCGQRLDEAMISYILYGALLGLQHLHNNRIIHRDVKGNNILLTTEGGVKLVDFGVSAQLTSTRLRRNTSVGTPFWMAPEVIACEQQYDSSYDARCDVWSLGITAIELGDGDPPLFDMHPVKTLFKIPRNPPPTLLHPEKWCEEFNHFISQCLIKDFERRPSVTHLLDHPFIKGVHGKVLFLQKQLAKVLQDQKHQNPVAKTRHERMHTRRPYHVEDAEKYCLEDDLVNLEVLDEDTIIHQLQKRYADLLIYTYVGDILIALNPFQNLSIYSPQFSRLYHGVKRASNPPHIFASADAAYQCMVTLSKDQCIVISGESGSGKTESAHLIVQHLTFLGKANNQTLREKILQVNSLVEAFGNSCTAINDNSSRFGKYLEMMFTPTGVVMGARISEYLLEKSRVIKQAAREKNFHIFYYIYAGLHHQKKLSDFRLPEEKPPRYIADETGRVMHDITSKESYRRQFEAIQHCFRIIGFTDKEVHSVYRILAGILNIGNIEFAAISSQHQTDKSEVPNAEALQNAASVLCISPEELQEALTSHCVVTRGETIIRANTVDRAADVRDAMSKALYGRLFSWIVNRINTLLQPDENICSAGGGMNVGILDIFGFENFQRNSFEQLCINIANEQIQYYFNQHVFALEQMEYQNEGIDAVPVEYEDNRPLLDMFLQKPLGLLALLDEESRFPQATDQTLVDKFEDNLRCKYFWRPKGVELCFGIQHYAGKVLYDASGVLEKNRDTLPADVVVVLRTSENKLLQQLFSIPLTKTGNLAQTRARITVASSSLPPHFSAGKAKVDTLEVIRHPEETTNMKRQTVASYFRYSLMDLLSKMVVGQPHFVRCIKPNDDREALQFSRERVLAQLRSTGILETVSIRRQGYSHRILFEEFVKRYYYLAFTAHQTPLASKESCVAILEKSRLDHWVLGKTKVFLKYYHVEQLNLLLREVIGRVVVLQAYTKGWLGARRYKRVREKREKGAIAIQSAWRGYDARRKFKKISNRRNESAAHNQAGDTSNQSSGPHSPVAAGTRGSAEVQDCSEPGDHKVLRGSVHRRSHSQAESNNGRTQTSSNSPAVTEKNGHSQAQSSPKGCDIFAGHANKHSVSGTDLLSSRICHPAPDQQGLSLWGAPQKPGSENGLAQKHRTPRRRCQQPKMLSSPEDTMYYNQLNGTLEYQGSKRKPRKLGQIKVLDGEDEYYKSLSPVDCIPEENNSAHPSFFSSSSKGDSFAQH
T30 sequence (P30291 whole entry): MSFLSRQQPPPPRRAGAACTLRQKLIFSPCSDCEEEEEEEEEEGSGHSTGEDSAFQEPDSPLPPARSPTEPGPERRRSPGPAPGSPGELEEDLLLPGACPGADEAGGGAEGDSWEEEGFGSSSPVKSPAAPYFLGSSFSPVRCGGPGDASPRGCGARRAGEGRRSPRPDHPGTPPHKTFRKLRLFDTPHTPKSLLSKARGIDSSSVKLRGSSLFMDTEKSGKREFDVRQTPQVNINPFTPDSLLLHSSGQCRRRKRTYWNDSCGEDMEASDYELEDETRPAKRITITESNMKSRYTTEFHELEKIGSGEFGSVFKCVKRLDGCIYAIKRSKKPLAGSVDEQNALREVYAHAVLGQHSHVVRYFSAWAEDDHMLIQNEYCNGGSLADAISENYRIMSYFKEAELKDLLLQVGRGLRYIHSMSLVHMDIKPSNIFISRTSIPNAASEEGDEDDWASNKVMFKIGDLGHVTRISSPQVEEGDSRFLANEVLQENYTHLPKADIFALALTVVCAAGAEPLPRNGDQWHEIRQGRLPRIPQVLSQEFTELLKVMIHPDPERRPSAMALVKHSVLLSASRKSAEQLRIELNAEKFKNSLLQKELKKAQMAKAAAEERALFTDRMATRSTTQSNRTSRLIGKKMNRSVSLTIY
T1 sequence (P31751 whole entry): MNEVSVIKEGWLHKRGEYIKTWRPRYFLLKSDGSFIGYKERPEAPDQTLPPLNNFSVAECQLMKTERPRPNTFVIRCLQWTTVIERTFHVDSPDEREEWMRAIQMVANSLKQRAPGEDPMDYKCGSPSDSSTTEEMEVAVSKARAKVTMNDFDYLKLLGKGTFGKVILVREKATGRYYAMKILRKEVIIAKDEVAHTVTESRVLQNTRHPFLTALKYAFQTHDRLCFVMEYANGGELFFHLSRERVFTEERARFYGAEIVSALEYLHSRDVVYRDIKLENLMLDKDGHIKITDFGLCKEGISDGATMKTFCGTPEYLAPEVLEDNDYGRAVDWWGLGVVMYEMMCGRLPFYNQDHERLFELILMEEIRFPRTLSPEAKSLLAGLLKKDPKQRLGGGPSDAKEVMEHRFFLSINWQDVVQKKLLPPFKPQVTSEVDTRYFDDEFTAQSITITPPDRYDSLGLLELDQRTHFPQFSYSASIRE
T26 sequence (Q05513 whole entry): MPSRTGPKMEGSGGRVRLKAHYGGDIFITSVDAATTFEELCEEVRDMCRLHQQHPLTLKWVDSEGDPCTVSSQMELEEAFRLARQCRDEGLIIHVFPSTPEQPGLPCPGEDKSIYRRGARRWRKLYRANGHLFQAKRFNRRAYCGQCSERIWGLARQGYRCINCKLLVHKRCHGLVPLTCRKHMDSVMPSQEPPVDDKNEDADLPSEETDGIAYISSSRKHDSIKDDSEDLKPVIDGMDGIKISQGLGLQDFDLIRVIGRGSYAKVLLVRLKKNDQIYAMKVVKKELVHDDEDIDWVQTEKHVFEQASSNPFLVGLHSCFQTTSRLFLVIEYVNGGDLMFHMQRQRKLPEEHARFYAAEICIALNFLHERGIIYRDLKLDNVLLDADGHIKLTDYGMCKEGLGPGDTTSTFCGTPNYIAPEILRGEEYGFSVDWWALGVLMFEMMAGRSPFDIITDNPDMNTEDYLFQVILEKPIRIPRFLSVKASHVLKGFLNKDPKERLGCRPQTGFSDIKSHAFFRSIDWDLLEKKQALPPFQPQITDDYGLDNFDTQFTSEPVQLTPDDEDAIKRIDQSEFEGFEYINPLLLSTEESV
T5 sequence (Q13557 whole entry): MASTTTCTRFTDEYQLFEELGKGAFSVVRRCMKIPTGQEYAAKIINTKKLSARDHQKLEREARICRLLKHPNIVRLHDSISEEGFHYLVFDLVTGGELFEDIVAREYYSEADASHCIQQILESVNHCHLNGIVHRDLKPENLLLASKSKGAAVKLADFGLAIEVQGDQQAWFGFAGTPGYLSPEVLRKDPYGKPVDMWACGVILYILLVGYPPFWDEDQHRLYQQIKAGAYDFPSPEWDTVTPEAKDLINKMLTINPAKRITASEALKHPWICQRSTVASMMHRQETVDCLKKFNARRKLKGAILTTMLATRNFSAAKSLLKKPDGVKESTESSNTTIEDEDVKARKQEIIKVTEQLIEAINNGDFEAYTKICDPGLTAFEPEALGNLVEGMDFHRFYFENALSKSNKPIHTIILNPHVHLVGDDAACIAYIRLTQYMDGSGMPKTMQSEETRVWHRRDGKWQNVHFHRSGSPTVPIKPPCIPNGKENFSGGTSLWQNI
T20 sequence (P49137 whole entry): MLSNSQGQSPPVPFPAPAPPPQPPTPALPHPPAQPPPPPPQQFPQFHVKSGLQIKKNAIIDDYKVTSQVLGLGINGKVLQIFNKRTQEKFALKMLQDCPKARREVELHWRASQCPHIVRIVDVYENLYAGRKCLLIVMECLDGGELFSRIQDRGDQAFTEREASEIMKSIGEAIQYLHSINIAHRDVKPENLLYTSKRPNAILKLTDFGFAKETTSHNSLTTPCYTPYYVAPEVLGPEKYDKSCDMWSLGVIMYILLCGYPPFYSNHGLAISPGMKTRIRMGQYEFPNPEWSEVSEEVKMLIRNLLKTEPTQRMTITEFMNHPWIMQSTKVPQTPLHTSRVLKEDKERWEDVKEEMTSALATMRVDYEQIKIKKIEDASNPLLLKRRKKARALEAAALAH

Cc1cnc(N[C@H]2CC[C@H](N)CC2)nc1-c1cnc2ccc(-c3ccccc3)cn12 [CDDD11-8]
remaining activity at 1 µM (AKT2): 116% | remaining activity at 1 µM (Aurora C): 82.1% | remaining activity at 1 µM (BMPR2): 90.2% | remaining activity at 1 µM (CAMK1g): 97.7% | remaining activity at 1 µM (CAMK2d): 17.3% | remaining activity at 1 µM (CDK1/cyclin A): 78% | remaining activity at 1 µM (CDK6/cyclin D3): 96.6% | remaining activity at 1 µM (CK1d): 17.6% | remaining activity at 1 µM (CK1epsilon): 37.1% | remaining activity at 1 µM (CLK4): 26.1% | remaining activity at 1 µM (DAPK1): 96.1% | remaining activity at 1 µM (DCAMKL1): 113% | remaining activity at 1 µM (DLK/MAP3K12): 45.8% | remaining activity at 1 µM (EPHA4): 101% | remaining activity at 1 µM (FGFR2): 72.5% | remaining activity at 1 µM (GCK/MAP4K2): 24.8% | remaining activity at 1 µM (GLK/MAP4K3): 9.75% | remaining activity at 1 µM (HIPK4): 52.4% | remaining activity at 1 µM (IRAK4): 59.2% | remaining activity at 1 µM (MAPKAPK2): 106% | remaining activity at 1 µM (MEK3): 71.5% | remaining activity at 1 µM (MSK2/RPS6KA4): 97.4% | remaining activity at 1 µM (MYO3b): 58.4% | remaining activity at 1 µM (P38g): 100% | remaining activity at 1 µM (PAK5): 86.2% | remaining activity at 1 µM (PKCzeta): 89.2% | remaining activity at 1 µM (STK32C/YANK3): 91.1% | remaining activity at 1 µM (TSSK2): 93.8% | remaining activity at 1 µM (ULK1): 108% | remaining activity at 1 µM (WEE1): 94.3%
